Test results as given in patent US20240207214A1, “FATTY ACID LACTYLATES FOR USE IN TREATING RUMINANT ANIMALS” (FORFARMERS CORPORATE SERVICES B.V., priority 2021, published 2024).

Columns and labels:
Format in all cases: in vivo
Settings in all cases: diet supplementation, 10 ruminants per group; putative results
ruminants [1] = test: comparison of lactylates: effect on SCC, BC and mastitis
Description: Two experiments were carried out to evaluate the efficacy of lactylates in stimulating udder health. The first experiment was conducted with goats and the second with dairy cows. In the first experiment, a goat farm was used. The farm had issues with udder health and had high levels of somatic cell count (SCC) and bacterial counts (BC) in milk delivered. Performance and udder health data were collected every 4 weeks from shortly before starting the experiment for a duration of 3 months. During the experiment all goats on the farm were offered a ration supplemented with lactylates (in this case applied as ALOAPUR® powder as obtained from Purac/Corbion) (added to the compound feed, 3.5 to 7 g per goat per day). During the 3-month study period, every 3 to 4 weeks, data on performance and udder health was collected. The 2nd study was conducted on 7 dairy farms. […] Lactylates were supplemented to the ration of the cows on those farms via the compound feed (25 to 40 g per cow per day). The study lasted for 3 months. Performance and udder health data were collected at the beginning and every 4 weeks of the study. […] Methane emission is determined as described in Example 1; SCC, BC and mastitis effects are determined as described in Example 2. Effect on fecal consistency and effect on milk yield is determined as described in Example 3. The different lactylates are stearoyl lactylate, lauroyl lactylate, myristoyl lactylate, cetyl lactylate, palmitoyl lactylate and oleic lactylate. As control, the same diet without lactylates is supplied.

ruminants [2] = test: comparison of lactylates: effect on milk fat yield
Description: (§1) Two experiments were carried out to evaluate the efficacy of lactylate in stimulating intestinal absorptive capacity and improving fecal consistency, dry matter content and scores and milk fat yield. The first experiment was conducted with goats and the second with dairy cows. The focus of the first experiment was the absorptive capacity and fecal consistency and scores, while the 2nd experiment focused on the effect on milk fat yield. In the first experiment, a goat farm was used. The farm had issues with fecal consistency, having at least 30 goats per pen with low fecal consistency. Fecal consistency and scores per pen were recorded 2 times per week from the start of the experiment for a period of 3 months. The goats in the farm were supplemented with lactylates (in this case applied as ALOAPUR® powder as obtained from Purac/Corbion) (added to the compound feed) at the rate of 3.5 to 7 g per goat per day. The 2nd study focused on the effect on milk fat yield and was conducted at a dairy research farm. The herd (120 cows) was divided into 2 groups blocked on days in milk, milk yield and milk fat %. One group was supplemented with 50 g of lactylates per cow per day while the other group served as a control. The ration for both groups was similar and was balanced on energy, protein and minerals and vitamins. The experiment lasted for 9 week. Performance data was collected/recorded on weekly basis. […] Methane emission is determined as described in Example 1; SCC, BC and mastitis effects are determined as described in Example 2. Effect on fecal consistency and effect on milk yield is determined as described in Example 3. The different lactylates are stearoyl lactylate, lauroyl lactylate, myristoyl lactylate, cetyl lactylate, palmitoyl lactylate and oleic lactylate. As control, the same diet without lactylates is supplied.

ruminants [3] = test: comparison of lactylates: effect on fecal consistency score
Description: as §1

ruminants [4] = test: comparison of lactylates: effect on methane emission
Description: The well documented in vitro gas production technique (batch culture) (Soliva et al., Letters in Applied Microbiology 2003, 37, 35-39) was used in this study. The rumen fluid used in this incubation was obtained before the morning feeding from 3 rumen fistulated dairy cows on a basal diet composed of 50% maize silage and 50% wilted grass silage (on DM basis), supplemented with some straw and soybean meal. In addition, a balanced compound feed was fed to fulfill the animals' requirements for milk production. The rumen fluid of the three animals was mixed and used to prepare the inoculum. Incubations were performed in sealed 125-mL flasks, in triplicate. The supplements comprising the lactylates (in this case applied as ALOAPUR® powder as obtained from Purac/Corbion) at the level of 1 mg per ml buffered rumen fluid (see below), as well as the simulated dairy cow ration were added to the incubation flasks. On the day of the incubation, the flasks were sealed and flushed with CO2. To each flask, 25 mL of CO2-saturated bicarbonate/phosphate buffered rumen fluid was added (buffer:rumen fluid 4:1, v:v) before the onset of the in vitro incubations at 39° C. in a shaking incubator (Edmund Bühler Gmbh, Hechingen, Germany). After 24 h incubation period, the flasks were removed from the incubator and put directly in an ice bath to stop the microbial activity. Total gas pressure was measured, and the gas phase was sampled for gas composition analysis. Afterwards, pH was measured, and samples were collected for volatile fatty acids (VFA) analysis and protozoa numbers counting. […] Methane emission is determined as described in Example 1; SCC, BC and mastitis effects are determined as described in Example 2. Effect on fecal consistency and effect on milk yield is determined as described in Example 3. The different lactylates are stearoyl lactylate, lauroyl lactylate, myristoyl lactylate, cetyl lactylate, palmitoyl lactylate and oleic lactylate. As control, the same diet without lactylates is supplied.

Row | Compound | BC in milk reduced relative to control (ruminants [1]) | SCC in milk reduced relative to control (ruminants [1]) | incidence of mastitis reduced relative to control (ruminants [1]) | Average milk fat yield increased relative to control (ruminants [2]) | Number of ruminants with low fecal consistency reduced relative to control (ruminants [3]) | Methane emission reduction relative to control (ruminants [4])
1 | CCCCCCCCCCCCCCCC(=O)OC(C)C(=O)O (stereo not drawn) [Palmitoyl lactylate, palmitoyl lactylate] | by >20%, | by >20%, | by >25% | by >10% | by >50% | by >90%
2 | cetyl lactylate | by >20%, | by >20%, | by >25% | by >10% | by >50% | by >90%
3 | CCCCCCCC/C=C\CCCCCCCC(=O)OC(C)C(=O)O (stereo not drawn) [Oleic lactylate, oleic lactylate] | by >20%, | by >20%, | by >25% | by >10% | by >50% | by >90%
4 | CCCCCCCCCCCCCC(=O)OC(C)C(=O)O (stereo not drawn) [Myristoyl lactylate, myristoyl lactylate] | by >20%, | by >20%, | by >25% | by >10% | by >50% | by >90%
5 | CCCCCCCCCCCC(=O)OC(C)C(=O)O (stereo not drawn) [Lauroyl lactylate, lauroyl lactylate] | by >20%, | by >20%, | by >25% | by >10% | by >50% | by >90%
